# In patent US20230013669A1, “Antibacterial Treatment Using a Cannabinoid and an Active Agent” (priority 2019, published 2023):
# Where “and” joins values, the source holds several entries; their conditions need not be identical. Identical values can stand only once.
# Test system: Escherichia coli ATCC 25922 (GN_001)
# Test: Synergy of cannabidiol with cell-wall disrupting agent (CBD MIC in combination, FICI)
# Format: cell-based
# Protocol: The compounds were stored short term at 4° C.
# Analysis was performed using Microsoft Excel.
# [1] = CBD with Colistin, Escherichia coli ATCC 25922
# [2] = CBD with MCC_6442, Escherichia coli ATCC 25922
# [3] = CBD with Ticarcillin, Escherichia coli ATCC 25922
structure (smiles),measurement,setting,value
"C=C(C)C1CCC(C)=CC1c1c(O)cc(CCCCC)cc1O (stereo not shown) [Cannabidiol, 2-[3-methyl-6-(1-methylethenyl)-2-cyclohexen-1-yl]-5-pentyl-1,3-benzenediol]",CBD MIC with Aztreonam,Aztreonam at 0.062 μg/mL,1 ng/mL
same,CBD MIC with Aztreonam,Aztreonam at 0.25 μg/mL,1 ng/mL
same,CBD MIC with Aztreonam,Aztreonam at 0.5 μg/mL,1 ng/mL
same,CBD MIC with Aztreonam,Aztreonam at […],1 ng/mL
same,FICI,"CBD with Aztreonam at 0.015 μg/mL, CBD MIC taken as 256 μg/mL",1.12
same,FICI,"CBD with Aztreonam at 0.031 μg/mL, CBD MIC taken as 256 μg/mL",1.248
same,FICI,"CBD with Aztreonam at 0.062 μg/mL, CBD MIC taken as 256 μg/mL",0.496
same,FICI,"CBD with Aztreonam at 0.25 μg/mL, CBD MIC taken as 256 μg/mL",2
same,FICI,"CBD with Aztreonam at 0.5 μg/mL, CBD MIC taken as 256 μg/mL",4
same,FICI range,"CBD with Aztreonam, Synergy table (Table 76)",0.48
same,FICI range,"CBD with Aztreonam, all tested concentrations (Table 74)",0.5-4
same,FICI,"CBD with Cefepime at 0.015 μg/mL, CBD MIC taken as 256 μg/mL",1.484 and 1.242
same,FICI,"CBD with Cefepime at 0.062 μg/mL, CBD MIC taken as 256 μg/mL",2
same,FICI,"CBD with Cefepime at 0.25 μg/mL, CBD MIC taken as 256 μg/mL",8.065
same,FICI,"CBD with Cefepime at 0.25 μg/mL, CBD MIC taken as 256 μg/mL, listed as cannabidiol",4.032
same,FICI,"CBD with Cefepime at 0.5 μg/mL, CBD MIC taken as 256 μg/mL",16.13 and 8.065
same,FICI range,"CBD with Cefepime, all tested concentrations (Table 79), listed as CBD",1-16.13 and 0.5-8.06
same,FICI,"CBD with Cefotetan at 0.015 μg/mL, CBD MIC taken as 256 μg/mL",1.06
same,FICI,"CBD with Cefotetan at 0.031 μg/mL, CBD MIC taken as 256 μg/mL",1.124
same,FICI,"CBD with Cefotetan at 0.062 μg/mL, CBD MIC taken as 256 μg/mL",1.248
same,FICI,"CBD with Cefotetan at 0.5 μg/mL, CBD MIC taken as 256 μg/mL",2
same,FICI range (MIC table),"CBD with Cefotetan, Escherichia coli ATCC 25922",0.5-2
same,FICI range,"CBD with Cefotetan, Synergy table (Table 71)",0.5
same,FICI,"CBD with Ceftazidime at 0.015 μg/mL, Escherichia coli ATCC 25922",1.242
same,FICI,"CBD with Ceftazidime at 0.031 μg/mL, Escherichia coli ATCC 25922",1.5
same,FICI,"CBD with Ceftazidime at 0.062 μg/mL, Escherichia coli ATCC 25922",2
same,FICI,"CBD with Ceftazidime at 0.25 μg/mL, Escherichia coli ATCC 25922",4.032
same,FICI,"CBD with Ceftazidime at 0.5 μg/mL, Escherichia coli ATCC 25922",8.065
same,FICI range (MIC table),"CBD with Ceftazidime, Escherichia coli ATCC 25922",1.24-8.06
same,FICI,"CBD with Cefuroxime at 0.25 μg/mL, Escherichia coli ATCC 25922",1.125
same,FICI,"CBD with Cefuroxime at 1 μg/mL, Escherichia coli ATCC 25922",1.5
same,FICI,"CBD with Cefuroxime at 2 μg/mL, Escherichia coli ATCC 25922",1.001
same,FICI,"CBD with Cefuroxime at 4 μg/mL, Escherichia coli ATCC 25922",2
same,FICI,"CBD with Cefuroxime at 8 μg/mL, Escherichia coli ATCC 25922",4
same,FICI,"CBD with Colistin at 0.015 μg/mL, Escherichia coli ATCC 25922",1.03
same,FICI,"CBD with Colistin at 0.03 μg/mL, Escherichia coli ATCC 25922",1.06
same,FICI,"CBD with Colistin at 0.06 μg/mL, Escherichia coli ATCC 25922",0.1512
same,FICI,"CBD with Colistin at 0.25 μg/mL, Escherichia coli ATCC 25922",0.5039
same,FICI,"CBD with Colistin at 0.5 μg/mL, Escherichia coli ATCC 25922",1
same,FICI range (MIC table),[1],0.15-1.06
same,FICI range (Synergy table),[1],0.15-0.5
same,FICI range (MIC table),[2],0.5-1.25
same,FICI range (Synergy table),[2],0.5
same,FICI,"CBD with MCC_6442 at 0.25 μg/mL, Escherichia coli ATCC 25922",1.0625
same,FICI,"CBD with MCC_6442 at 0.5 μg/mL, Escherichia coli ATCC 25922",1.125
same,FICI,"CBD with MCC_6442 at 2 μg/mL, Escherichia coli ATCC 25922, listed as CBD",0.5
same,FICI range,"CBD with Octapeptin C4, Synergy table (Table 85), listed as CBD",0.5 and 0.31-0.5
same,FICI range,"CBD with Octapeptin C4, all tested concentrations (Table 83), listed as CBD",0.5-1.25 and 0.31-1.13
same,FICI,"CBD with Octapeptin C4 at 0.5 μg/mL, CBD MIC taken as 256 μg/mL",1.0625
same,FICI,"CBD with Octapeptin C4 at 1 μg/mL, CBD MIC taken as 256 μg/mL",1.125
same,FICI,"CBD with Octapeptin C4 at 2 μg/mL, CBD MIC taken as 256 μg/mL",0.3125
same,FICI,"CBD with Octapeptin C4 at 4 μg/mL, CBD MIC taken as 256 μg/mL",0.5002 and 0.5005
same,FICI,"CBD with Octapeptin C4 at […], CBD MIC taken as 256 μg/mL",1.016
same,FICI range,"CBD with Spero SPR206, 1st of 3 experiments",0.5-16
same,FICI range,"CBD with Spero SPR206, 2nd of 3 experiments, listed as CBD",0.13-1.06 and 0.07-1.03
same,FICI range,"CBD with Spero SPR206, 3rd of 3 experiments",1.01-8
same,FICI,"CBD with Spero SPR206 at 0.007 μg/mL, 2nd of 3 experiments, CBD MIC taken as 256 μg/mL",1.014
same,FICI,"CBD with Spero SPR206 at 0.015 μg/mL, 2nd of 3 experiments, CBD MIC taken as 256 μg/mL",1.03
same,FICI,"CBD with Spero SPR206 at 0.062 μg/mL, 2nd of 3 experiments, CBD MIC taken as 256 μg/mL",0.1279
same,FICI,"CBD with Spero SPR206 at 0.25 μg/mL, 2nd of 3 experiments, CBD MIC taken as 256 μg/mL",0.5039
same,FICI,"CBD with Spero SPR206 at 0.25 μg/mL, 3rd of 3 experiments, CBD MIC taken as 256 μg/mL",1.5
same,FICI,"CBD with Spero SPR206 at 0.5 μg/mL, 1st of 3 experiments, CBD MIC taken as 256 μg/mL",2
same,FICI,"CBD with Spero SPR206 at 0.5 μg/mL, 3rd of 3 experiments, CBD MIC taken as 256 μg/mL",1.008
same,FICI,"CBD with Spero SPR206 at 1 μg/mL, 1st of 3 experiments, CBD MIC taken as 256 μg/mL",4
same,FICI,"CBD with Spero SPR206 at 1 μg/mL, 3rd of 3 experiments, CBD MIC taken as 256 μg/mL",2.002 and 2.001
same,FICI,"CBD with Spero SPR206 at 2 μg/mL, 1st of 3 experiments, CBD MIC taken as 256 μg/mL",8
same,FICI,"CBD with Spero SPR206 at 2 μg/mL, 3rd of 3 experiments, CBD MIC taken as 256 μg/mL",4.001
same,FICI,"CBD with Spero SPR206 at 4 μg/mL, 1st of 3 experiments, CBD MIC taken as 256 μg/mL",16
same,FICI,"CBD with Spero SPR206 at 4 μg/mL, 3rd of 3 experiments, CBD MIC taken as 256 μg/mL",8
same,FICI,"CBD with Ticarcillin at 0.5 μg/mL, Escherichia coli ATCC 25922",1.0625
same,FICI,"CBD with Ticarcillin at 1 μg/mL, Escherichia coli ATCC 25922",1.125
same,FICI,"CBD with Ticarcillin at 4 μg/mL, Escherichia coli ATCC 25922",0.5005
same,FICI range (MIC table),[3],0.5-1.25
same,FICI range (Synergy table),[3],0.5
same,CBD MIC with Cefepime,Cefepime at 0.031 μg/mL,1 ng/mL
same,CBD MIC with Cefepime,Cefepime at 0.062 μg/mL,1 ng/mL
same,CBD MIC with Cefepime,Cefepime at 0.25 μg/mL,1 ng/mL
same,CBD MIC with Cefepime,Cefepime at 0.5 μg/mL,1 ng/mL
same,CBD MIC with Cefepime,Cefepime at […],1 ng/mL
same,CBD MIC with Cefotetan,Cefotetan at 0.015 μg/mL,>32000 ng/mL
same,CBD MIC with Cefotetan,"Cefotetan at 0.015 μg/mL, Escherichia coli ATCC 25922",>256000 ng/mL
same,CBD MIC with Cefotetan,Cefotetan at 0.031 μg/mL,>32000 ng/mL
same,CBD MIC with Cefotetan,"Cefotetan at 0.031 μg/mL, Escherichia coli ATCC 25922",>256000 ng/mL
same,CBD MIC with Cefotetan,Cefotetan at 0.062 μg/mL,>32000 ng/mL
same,CBD MIC with Cefotetan,"Cefotetan at 0.062 μg/mL, Escherichia coli ATCC 25922",>256000 ng/mL
same,CBD MIC with Cefotetan,Cefotetan at 0.25 μg/mL,1 ng/mL
same,CBD MIC with Cefotetan,"Cefotetan at 0.25 μg/mL, Escherichia coli ATCC 25922",1 ng/mL
same,CBD MIC with Cefotetan,Cefotetan at 0.5 μg/mL,1 ng/mL
same,CBD MIC with Cefotetan,"Cefotetan at 0.5 μg/mL, Escherichia coli ATCC 25922",1 ng/mL
same,CBD MIC with Cefotetan,Cefotetan at […],1 ng/mL
same,CBD MIC with Cefotetan,"Cefotetan at […], Escherichia coli ATCC 25922",1 ng/mL
same,CBD MIC with Ceftazidime,"Ceftazidime at 0.25 μg/mL, Escherichia coli ATCC 25922",1 ng/mL
same,CBD MIC with Ceftazidime,"Ceftazidime at 0.5 μg/mL, Escherichia coli ATCC 25922",1 ng/mL
same,CBD MIC with Cefuroxime,"Cefuroxime at 2 μg/mL, Escherichia coli ATCC 25922",250 ng/mL
